Data as given in article PMC10979003, “Development and crystal structures of a potent second-generation dual degrader of BCL-2 and BCL-xL” (Nature Communications, 2024).

Experiments:
[1] = target: T1, HiBiT-BCL-xL/HaloTag-VHL (Homo sapiens, UniProt P40337+Q07817); test: NanoBRET ternary complex formation assay in 293T cells, HiBiT-BCL-xL and HaloTag-VHL; format: cell-based; details: 4 h, MG132 pretreatment
T1 construct: full-length BCL-xL and BCL-2 were expressed in cells for the nanoBRET assay; host or cells: 293T
T1 sequence (Q07817 whole entry): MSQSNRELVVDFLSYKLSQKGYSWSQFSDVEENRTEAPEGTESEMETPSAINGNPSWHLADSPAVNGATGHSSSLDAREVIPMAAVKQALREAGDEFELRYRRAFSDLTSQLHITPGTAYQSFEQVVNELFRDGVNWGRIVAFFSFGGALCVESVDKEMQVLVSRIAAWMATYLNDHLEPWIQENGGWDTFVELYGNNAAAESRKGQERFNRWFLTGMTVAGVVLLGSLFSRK
T1 sequence (Q15369 whole entry, further chain): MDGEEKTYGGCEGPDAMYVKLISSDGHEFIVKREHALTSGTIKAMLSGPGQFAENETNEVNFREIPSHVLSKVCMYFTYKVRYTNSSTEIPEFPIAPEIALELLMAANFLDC
T1 sequence (Q15370 whole entry, further chain): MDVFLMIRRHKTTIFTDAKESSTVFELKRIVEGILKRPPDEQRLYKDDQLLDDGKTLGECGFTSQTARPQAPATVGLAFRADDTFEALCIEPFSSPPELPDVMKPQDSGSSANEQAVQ
T1 sequence (P40337 whole entry): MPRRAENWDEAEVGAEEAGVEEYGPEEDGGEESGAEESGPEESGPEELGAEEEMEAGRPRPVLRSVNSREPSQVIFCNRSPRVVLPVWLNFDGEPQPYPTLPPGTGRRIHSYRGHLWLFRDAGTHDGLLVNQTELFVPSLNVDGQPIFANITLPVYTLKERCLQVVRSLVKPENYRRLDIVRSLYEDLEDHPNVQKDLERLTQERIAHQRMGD
Protocol: Plasmids HaloTag-VHL (Cat. No. CS1679C155) and CMV HiBiT (Cat. No. CS1956B03) were purchased from Promega. HiBiT-BCL-xL and HiBiT-BCL-2 were constructed previously. 293T cells (8 × 10^5 cells/well in a 6-well plate) were transfected with Lipofectamine (Life Technologies) and 1 μg HaloTag-VHL, 20 ng HiBiT-BCL-xL and 20 ng LgBiT or 1 μg HaloTag-VHL, 20 ng HiBiT-BCL-2 and 20 ng LgBiT. After 48 h, 2 × 10^4 transfected cells were seeded into each well of white 96-well tissue culture plates in Gibco™ Opti-MEM™ I Reduced Serum Medium, No Phenol Red (Cat. No. 11-058-021, Fisher) containing 4% FBS with or without HaloTag NanoBRET 618 Ligand (Cat. No. PRN1662, Promega) and incubated overnight at 37 °C, 5% CO2. […] After treatment, NanoBRET Nano-Glo Substrate (cat. no. N1662, Promega) was added into the medium, and the contents were mixed by shaking the plate for 30 s before measuring donor and acceptor signals on Biotek plate reader. Dual-filtered luminescence was collected with a 450/50 nm bandpass filter (donor, NanoBiT-BCL-XL protein or NanoBiT-BCL-2 protein) and a 610-nm longpass filter (acceptor, HaloTag NanoBRET ligand) using an integration time of 0.5 s. mBRET ratios were calculated following the NanoBRET™ Nano-Glo® Detection System (Cat. No. N1662, Promega).

[2] = target: T2, BCL-2 R110A E114A (Homo sapiens, UniProt P10415, E114A/R110A); test: AlphaScreen binary binding, BCL-2 R110A E114A; details: mean ± s.d., n=3
T2 construct: BCL-xL (aa 2-212) and BCL-2 (aa 1-207) transformed cells were grown in LB broth; made in house; host or cells: E. coli BL21 (DE3) codon plus
T2 sequence (P10415 1-207 R110A/E114A): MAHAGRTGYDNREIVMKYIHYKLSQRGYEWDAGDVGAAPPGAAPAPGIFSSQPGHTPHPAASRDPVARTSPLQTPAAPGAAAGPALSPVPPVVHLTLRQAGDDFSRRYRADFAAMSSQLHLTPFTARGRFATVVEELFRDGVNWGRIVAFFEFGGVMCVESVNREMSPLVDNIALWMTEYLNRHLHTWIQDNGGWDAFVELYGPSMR
Protocol: (§1) To test the binary/ternary binding affinities of compounds to BCL-2/BCL-xL, AlphaScreen displacement binding assay was performed to test the capabilities of testing compounds to displace a Biotin-tagged Bim (Biotin-[…]) or Bad (Biotin-[…]) from BCL-2 or BCL-xL for BCL-2 and BCL-xL binding affinities, respectively. All reagents were diluted in assay buffer of 25 mM HEPES, pH 7.5, 150 mM NaCl, 0.1% BSA, and 0.005% tween 20 prior incubation. To a 96-well PCR plate (VWR, Cat. No. 82006-636) was added 10 μL Biotin-tagged Bim (15 nM for WT or 50 nM for mutants) or Bad (15 nM for WT or 50 nM for mutants), 10 μL series diluted compounds solution (2 or 3 or 4× dilution), and 10 μL self-made 6×His tagged BCL-2 WT or mutants (25 nM WT or 50 nM mutants) or 10 μL self-made BCL-xL WT and mutants (10 nM WT or 50 nM mutants). […] The luminescence signal was detected on a Biotek’s Synergy Neo2 multimode plate reader installed with an AphaScreen filter cube. The Ki values of each compounds were calculated by fitting data into the “Binding-competitive, One site-Fit Ki” function in GraphPad Prism (9.2.0) based on concentrations of Biotin–peptide used and experimentally determined Kd values of each 6×His protein &&&and Biotin–Peptide pair.

[3] = target: T3, BCL-2 R110A E114K (Homo sapiens, UniProt P10415, E114K/R110A); test: AlphaScreen binary binding, BCL-2 R110A E114K; details: mean ± s.d., n=3
T3 construct: BCL-xL (aa 2-212) and BCL-2 (aa 1-207) transformed cells were grown in LB broth; made in house; host or cells: E. coli BL21 (DE3) codon plus
T3 sequence (P10415 1-207 R110A/E114K): as the sequence (P10415 1-207 R110A/E114A) above, with A114K counted along it
Protocol: as §1

[4] = tested on: human platelets; test: Potency against human platelets in vitro; format: cell-based
[5] = tested on: H146 small cell lung cancer cells; test: Cytotoxicity in H146 SCLC cells in vitro; format: cell-based; details: Figure R4
[6] = target: T4, BCL-xL D107A (Homo sapiens, UniProt Q07817, D107A); test: AlphaScreen binary binding, BCL-xL D107A; details: mean ± s.d., n=3
T4 construct: BCL-xL (aa 2-212) and BCL-2 (aa 1-207) transformed cells were grown in LB broth; SMT3 (N); made in house; host or cells: E. coli BL21 (DE3) codon plus
T4 sequence (Q07817 2-212 D107A): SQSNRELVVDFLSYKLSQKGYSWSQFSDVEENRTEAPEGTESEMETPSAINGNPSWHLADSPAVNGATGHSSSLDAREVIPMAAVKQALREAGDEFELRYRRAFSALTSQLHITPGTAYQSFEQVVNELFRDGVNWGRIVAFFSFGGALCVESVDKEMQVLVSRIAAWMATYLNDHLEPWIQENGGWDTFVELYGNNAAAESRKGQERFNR
Protocol: as §1

[7] = target: T5, BCL-xL R103A/D107A/S110A (Homo sapiens, UniProt Q07817, D107A/R103A/S110A); test: AlphaScreen binary binding, BCL-xL R103A/D107A/S110A; details: mean ± s.d., n=3
T5 construct: BCL-xL (aa 2-212) and BCL-2 (aa 1-207) transformed cells were grown in LB broth; SMT3 (N); made in house; host or cells: E. coli BL21 (DE3) codon plus
T5 sequence (Q07817 2-212 R103A/D107A/S110A): as the sequence (Q07817 2-212 D107A) above, with R102A, S109A counted along it
Protocol: as §1

[8] = target: T6, BCL-xL R103A/D107A/S110A/Q111A (Homo sapiens, UniProt Q07817, D107A/Q111A/R103A/S110A); test: AlphaScreen binary binding, BCL-xL R103A/D107A/S110A/Q111A; details: mean ± s.d., n=3; read-out: Ki (nM, n=3), BCL-xL R103A/D107A/S110A/Q111AA
T6 construct: BCL-xL (aa 2-212) and BCL-2 (aa 1-207) transformed cells were grown in LB broth; SMT3 (N); made in house; host or cells: E. coli BL21 (DE3) codon plus
T6 sequence (Q07817 2-212 R103A/D107A/S110A/Q111A): as the sequence (Q07817 2-212 D107A) above, with R102A, S109A, Q110A counted along it
Protocol: as §1

| Structure (SMILES) | Cellular ternary complex formation with BCL-xL (comparison) [1] | Ki [2] | Ki [3] | Increase in therapeutic index compared to ABT263 [4] | Potency against H146 cells (comparison with ABT263, DT2216, 753b) [5] | Ki [6] | Ki [7] | Ki [8] |
| --- | --- | --- | --- | --- | --- | --- | --- | --- |
| Cc1ncsc1-c1ccc([C@H](C)NC(=O)[C@@H]2C[C@@H](O)CN2C(=O)[C@@H](NC(=O)CN2CCN(CC(=O)N3CCN(C[C@]4(C)CCC(c5ccc(Cl)cc5)=C(CN5CCN(c6ccc(C(=O)NS(=O)(=O)c7ccc(N[C@H](CCN8C[C@@H]9C[C@H]8CO9)CSc8ccccc8)c(S(=O)(=O)C(F)(F)F)c7)cc6)CC5)C4)CC3)CC2)C(C)(C)C)cc1 [WH244] | significantly lower compound concentration than 753b | 5.8 ± 0.6 nM | 7 ± 0.9 nM | more than 100 fold | most potent | – | – | – |
| Cc1ncsc1-c1ccc(C(C)NC(=O)C2CC(O)CN2C(=O)C(NC(=O)CCCCCCC(=O)N2CCN(CC3(C)CCC(c4ccc(Cl)cc4)=C(CN4CCN(c5ccc(C(=O)NS(=O)(=O)c6ccc(NC(CCN7CCOCC7)CSc7ccccc7)c(S(=O)(=O)C(F)(F)F)c6)cc5)CC4)C3)CC2)C(C)(C)C)cc1 (centres unmarked) [753b] | – | – | – | – | – | 30.3 ± 4.5 nM | 18.4 ± 2.3 nM | 23 ± 4 nM |
